Key:
Nrf-2 = Nrf-2 induction, nuclear fraction Western blotting; format: cell-based; conditions: SH-SY5Y, 10 µM compound for 24 hours
Procedure: When oxidative stress caused by reactive oxygen species increases in cells, the synthesis of antioxidants increases in response to this. One of the transcription factors mediating this antioxidant response is Nrf-2. As the transcription factor Nrf-2 enters the nucleus and the expression of genes related to antioxidation increases, the antioxidant capacity of cells increases.
Specifically, the SH-SY5Y cell line was exposed to Compound 1aaa (Compound 1, 10 µM) for 24 hours and then the cells were taken. Thereafter, the nuclear fraction was extracted, then Western blotting was performed to analyze the amount of Nrf-2 in the nucleus, and the results are illustrated in FIG. 7.

SH-SY5Y cell line [1] = experiment: Cell viability (MTT assay) after MPP+ or rotenone; format: cell-based; conditions: 0.5 µM compound, then MPP+ (2 mM) or rotenone (2 µM) for 24 hours
Procedure: Specifically, the SH-SY5Y cell line was treated with 0.5 µM of Compound 1aaa (Compound 1), 1aca (Compound 24), lace (Compound 27), 1ahe (Compound 44) or 1aje (Compound 62) and then with MPP+ (2 mM) or rotenone (2 µM) for 24 hours. Cell viability in the case of being treated with each compound is illustrated in FIGS. 4 and 5.

[2] = Single acute toxicity evaluation 1 (1000 mg/kg oral); format: in vivo, ICR mice
Procedure: Acute toxicity properties after single administration of the compound of the present invention were evaluated in an animal model.

SH-SY5Y cell line [3] = experiment: Inhibition of reactive oxygen species generation (CM-H2DCFDA) after MPP+ or rotenone; format: cell-based; conditions: 10 µM compound, then MPP+ (2 mM) or rotenone (2 µM) for 24 hours
Procedure: It is known that reactive oxygen species are generated by inhibition of mitochondria, activation of NOX enzyme, and the like when MPP+ or rotenone is administered to a cell line. Since the reactive oxygen species generated at this time react with the CM-H2DCFDA reagent to be fluorescent, the reactive oxygen species can be indirectly quantified.
Specifically, the SH-SY5Y cell line was treated with Compound 1aaa (Compound 1, 10 µM), apocynin (5 µM), or allopurinol (50 µM), and then with MPP+ (2 mM) or rotenone (2 µM) for 24 hours. The effect of each compound to inhibit the generation of reactive oxygen species is illustrated in FIGS. 2 and 3 as a relative percentage to that of the control group.

alpha-synuclein = experiment: Alpha-synuclein aggregation (phosphorylation) inhibition, Western blotting; format: cell-based; conditions: SH-SY5Y, 10 µM compound then rotenone
Procedure: When rotenone is administered to nerve cells, phosphorylation, namely aggregation of alpha-synuclein occurs. Phosphorylation, aggregation of alpha-synuclein can be observed and quantified through Western blotting.
Specifically, the SH-SY5Y cell line was treated with Compound 1aaa (Compound 1, 10 µM) and then with rotenone. Thereafter, Western blotting was performed to measure the expression levels of alpha-synuclein and phosphorylated alpha-synuclein, and the results are illustrated in FIG. 6.

## CN1C(=[Se])N(c2ccccc2)C(=O)C1=Cc1ccc(O)cc1O [Compound 1aaa]
Nrf-2
  amount of Nrf-2 in the nucleus, increase: about 1.5 times
SH-SY5Y cell line [1]
  cell viability / inhibition of cell death: significantly inhibit cell death
[2]
  autopsy report findings: no specific findings
  organ weight: no change in organ weight
[2]; day 0
  change in body weight: 100
[2]; day 1
  change in body weight: 98.06
[2]; day 2
  change in body weight: 101.29
[2]; day 3
  change in body weight: 104.85
[2]; day 5
  change in body weight: 106.47
[2]; day 7
  change in body weight: 109.39
[2]; observed for 1 week
  acute toxicity phenomenon: a specific acute toxicity phenomenon was not observed
SH-SY5Y cell line [3]
  inhibition of increased generation of reactive oxygen species: effectively inhibits
alpha-synuclein
  phosphorylation of alpha-synuclein by rotenone: significantly reduced
